In US7223793B2, “Phenolic acid derivatives and composition for preventing or treating blood lipid level-related diseases comprising the same” (Bionutrigen Co., Ltd., priority 2001, dated 2007):
Marks after values point to notes of the source that are not given here. One block for each compound: values may come before it.

Experiments:
[1] = system: New Zealand White rabbits; test: Fatty streak in the main artery of cholesterol-fed rabbits (Experimental Example 7, Step 2); format: in vivo, rabbit; conditions: 8 weeks; for Proportion of stained region (fatty streak region) per unit area of the artery: 1% cholesterol + RC4 diet, lovastatin 0.003 wt %, BN compounds 0.025 wt %, average ± standard deviation; for Proportion of the fatty streak region compared to the control group: 1% cholesterol diet
Protocol: The rabbits raised in Step 1 were sacrificed and their chests were incised. The incision was performed downward to the diaphragm along the aortic arch and the fat surrounding the main artery was removed. The main artery was incised in the middle along the longitudinal axis from the second aortic intercostal artery anastomoses to the seventh aortic intercostal artery anastomoses and fixed with 10% neutral buffered formalin for 24 hours. Then, the incised main artery was pinned to a dish for staining of fatty streaks according to the method of Esper, E., et al. {J. Lab. Clin. Med., 121, 103-110 (1993)}. The artery was washed with propylene glycol three times for 2 minutes respectively. The artery was stained for 30 minutes with a saturated solution of Oil Red O (ORO, Sigma Co.) dissolved in propylene glycol. Thereafter, the artery was washed with 85% propylene glycol twice for 3 minutes respectively to remove the remaining staining solution and, then the artery was washed with physiological saline once. The artery was photographed and the photograph was traced. The proportion (%) of stained region (fatty streak region) per unit area of the artery was determined with an image analyzer (LEICA, Q-600, Germany). The significant differences between the test groups were tested by student t-test using Microsoft excel (version 7.0) program

[2] = system: New Zealand White rabbits; test: Chemical analysis of blood of cholesterol-fed rabbits (Experimental Example 7, Step 3); conditions: 8 weeks
Protocol: Healthy male New Zealand White rabbits, each weighing about 2.0 to 2.3 kg, were supplied from Yeonam Horticulture and Animal Husbandry College (Korea) and raised under a breeding environment of temperature 20±2° C., relative humidity 55±10%, and photoperiod 12L/12D. […] The rabbits were fed for 8 weeks while being allowed free access to the diets and water.

Sprague-Dawley rats = test: Effect on hyperlipemia in rats fed high-cholesterol diet (Experimental Example 6); format: in vivo, rat; conditions: rats on 1% cholesterol diet, 6 weeks; for Atherogenic index (AI): (total cholesterol − HDL cholesterol)/HDL cholesterol; for HDL-cholesterol / Neutral fat / Total cholesterol: 0.02% lovastatin, 0.039% BN30063, 0.040% BN30064, 0.041% BN30067 in diet; for HDL-cholesterol / Neutral fat / Total cholesterol / HDL-cholesterol/total cholesterol: average
Excerpt: 50 of 4-week-old male white Sprague-Dawley rats (Bio Genomics Inc., Korea), each weighing about 90 to 110 g, were divided into five groups by a randomized block design. The rats of the five groups were fed with five different high-cholesterol diets, i.e., AIN-76 laboratory animal diets (TEKLAD premier Co., Madison, Wis., U.S.A.) containing 1% cholesterol (Control group), 1% cholesterol plus 0.02% lovastatin (Choongwae Pharma. Corp., Korea), 1% cholesterol plus 0.039% BN30063, 1% cholesterol plus 0.040% BN30064, and 1% cholesterol plus 0.041% BN30067, respectively, as shown in Table VII.
The animals were allowed free access to the specified diets and water for 6 weeks and the ingestion amounts were recorded daily. The rats were weighed every 7 days, and then the record was analyzed.
Blood samples were taken from vena hypogastrica of the rats of the five dietary groups raised for six weeks in Step 1. The blood was allowed to stand for 2 hours and centrifuged at 3,000 rpm for 15 minutes and the supernatant containing serum was separated and stored in a deep freezer before use. The total cholesterol level was measured using a diagnosis kit purchased from Sigma, Cat. No.: C0534, applying the method of Allain et al. (Allain et al., Clin. Chem., 20, 470-475 (1974)). The HDL fraction was separated using a kit purchased from Sigma, Cat. No.: 352-1 applying the heparin-manganese precipitation method (Waenic R. G. and Albers J. J., J Lipid Res., 19, 65-76 (1978)) and the HDL-cholesterol level was measured using a kit purchased from Sigma, Cat. No.: C9908. The neutral fat level was measured using a kit purchased from Sigma, Cat. No.: 336-10) applying the lipase-glycerol phosphate oxidase method (McGowan, M. W. et al., Clin. Chem., 29, 538-542(1983)).

[3] = system: New Zealand White rabbits; test: Morphological observation of liver tissue of cholesterol-fed rabbits (Experimental Example 7, Step 4)
Protocol: Healthy male New Zealand White rabbits, each weighing about 2.0 to 2.3 kg, were supplied from Yeonam Horticulture and Animal Husbandry College (Korea) and raised under a breeding environment of temperature 20±2° C., relative humidity 55±10%, and photoperiod 12L/12D. The rabbits were divided into 5 groups, which were fed with 5 different diets, i.e., the control group fed with RC4 diet (Oriental Yeast Co., Japan) comprising moisture (7.6%), crude protein (22.8%), crude fat (2.8%), crude ash (8.8%), crude cellulose (14.4%) and soluble nitrogen-free substances (43.7%) plus cholesterol (1%) and four treatment groups further fed with lovastatin or BN30063, BN30064, BN30067 in addition to the feed of the control group. The rabbits were fed for 8 weeks while being allowed free access to the diets and water.
Proportions of cells in the liver acinus containing excessive fat or modified to have irregular arrangement due to a high cholesterol diet were classified into four grades, from 1+ to 4+.

[4] = 1% cholesterol diet, lovastatin 1 mg/kg, BN compounds 0.025%, average ± standard deviation

Grade of abnormal fat content in the liver acinus ([3]; rabbit, in vivo): 3.71 ± 0.35
Liver tissue morphology ([3]; rabbit, in vivo): not observed any abnormality
Structure (SMILES): COC(=O)C(CO)NC(=O)CCc1ccc(O)c(O)c1 (centres unmarked) [BN30063, 2-[3-(3,4-dihydroxyphenyl)propionylamino]-3-hydroxy propionic acid methyl ester]
Proportion of stained region (fatty streak region) per unit area of the artery [1]: 44.8 ± 10.5%
Proportion of the fatty streak region compared to the control group [1]: significantly lower
HDL [2, 4]: 81 ± 16 mg/dL
TC [2, 4]: 1643 ± 194 mg/dL
Atherogenic index (AI) (Sprague-Dawley rats): 1.39
Increase of HDL-cholesterol to total cholesterol as compared to the control group (Sprague-Dawley rats): 78.28%
Reduction of atherogenic index as compared to the control group (Sprague-Dawley rats): 57.75%
Reduction of neutral fat level as compared to the control group (Sprague-Dawley rats): 49.41%
Reduction of total plasma cholesterol level as compared to the control group (Sprague-Dawley rats): 29.8%
HDL-cholesterol (Sprague-Dawley rats): 28.97 mg/dL
Neutral fat (Sprague-Dawley rats): 52.31 mg/dL
Total cholesterol (Sprague-Dawley rats): 68.06 mg/dL
HDL-cholesterol/total cholesterol (Sprague-Dawley rats): 43.25%

Grade of abnormal fat content in the liver acinus ([3]; rabbit, in vivo): 3.70 ± 0.10
Liver tissue morphology ([3]; rabbit, in vivo): not observed any abnormality
Structure (SMILES): CC(C)CC(NC(=O)CCc1ccc(O)c(O)c1)C(=O)O (centres unmarked) [BN30064, 2-[3-(3,4-dihydroxyphenyl)propionylamino]-4-methyl pentanoic acid]
Proportion of stained region (fatty streak region) per unit area of the artery [1]: 31.2 ± 11.6^b %
Proportion of the fatty streak region compared to the control group [1]: significantly lower
HDL [2, 4]: 85 ± 15 mg/dL
TC [2, 4]: 1596 ± 191^b mg/dl
HDL compared to the control group [2]: significantly increased value
Total cholesterol compared to the control group [2]: significantly low
Atherogenic index (AI) (Sprague-Dawley rats): 1.61
Increase of HDL-cholesterol to total cholesterol as compared to the control group (Sprague-Dawley rats): 68.10%
Reduction of atherogenic index as compared to the control group (Sprague-Dawley rats): 51.06%
Reduction of neutral fat level as compared to the control group (Sprague-Dawley rats): 29.35%
Reduction of total plasma cholesterol level as compared to the control group (Sprague-Dawley rats): 21.92%
HDL-cholesterol (Sprague-Dawley rats): 28.49 mg/dL
Neutral fat (Sprague-Dawley rats): 73.07 mg/dL
Total cholesterol (Sprague-Dawley rats): 75.71 mg/dL
HDL-cholesterol/total cholesterol (Sprague-Dawley rats): 40.78%

Grade of abnormal fat content in the liver acinus ([3]; rabbit, in vivo): 3.82 ± 0.8
Liver tissue morphology ([3]; rabbit, in vivo): not observed any abnormality
Structure (SMILES): O=C(O)CC(NC(=O)CCc1ccc(O)c(O)c1)C(=O)O (centres unmarked) [BN30067, 2-[3-(3,4-dihydroxyphenyl)propionylamino]-succinic acid]
Proportion of stained region (fatty streak region) per unit area of the artery [1]: 43.0 ± 13.9^b %
Proportion of the fatty streak region compared to the control group [1]: significantly lower
HDL [2, 4]: 81 ± 14 mg/dL
TC [2, 4]: 1710 ± 251 mg/dL
Atherogenic index (AI) (Sprague-Dawley rats): 1.96
Increase of HDL-cholesterol to total cholesterol as compared to the control group (Sprague-Dawley rats): 42.70%
Reduction of atherogenic index as compared to the control group (Sprague-Dawley rats): 40.43%
Reduction of neutral fat level as compared to the control group (Sprague-Dawley rats): 63.87%
Reduction of total plasma cholesterol level as compared to the control group (Sprague-Dawley rats): 27.82%
HDL-cholesterol (Sprague-Dawley rats): 23.81 mg/dL
Neutral fat (Sprague-Dawley rats): 37.37 mg/dL
Total cholesterol (Sprague-Dawley rats): 69.99 mg/dL
HDL-cholesterol/total cholesterol (Sprague-Dawley rats): 34.62%

Structure (SMILES): CC[C@H](C)C(=O)O[C@H]1C[C@@H](C)C=C2C=C[C@H](C)[C@H](CC[C@@H]3C[C@@H](O)CC(=O)O3)[C@H]21 [Lovastatin, reference compound]
Proportion of stained region (fatty streak region) per unit area of the artery [1]: 30.3 ± 12^b %
Proportion of the fatty streak region compared to the control group [1]: significantly lower
GOT [2, 4]: 105 ± 47^b IU/L
GPT [2, 4]: 47 ± 18 IU/L
HDL [2, 4]: 70 ± 6 mg/dL
TC [2, 4]: 1739 ± 86 mg/dL
GOT and GPT compared among the test groups ([2]; associated with hepatotoxicosis): highest GOT and GPT values among the test groups
Atherogenic index (AI) (Sprague-Dawley rats): 2.58
Increase of HDL-cholesterol to total cholesterol as compared to the control group (Sprague-Dawley rats): 20%
Reduction of atherogenic index as compared to the control group (Sprague-Dawley rats): 21.58%
Reduction of neutral fat level as compared to the control group (Sprague-Dawley rats): 18.92%
Reduction of total plasma cholesterol level as compared to the control group (Sprague-Dawley rats): 10%
HDL-cholesterol (Sprague-Dawley rats): 24.83 mg/dL
Neutral fat (Sprague-Dawley rats): 83.85 mg/dL
Total cholesterol (Sprague-Dawley rats): 86.51 mg/dL
HDL-cholesterol/total cholesterol (Sprague-Dawley rats): 29.13%
Grade of abnormal fat content in the liver acinus ([3]; 1+ (0–25%), 2+ (26–50%), 3+ (51–75), 4+ (76–100%), rabbits, 1% cholesterol diet, 8 weeks, average ± standard deviation): 3.83 ± 0.5^b
Liver tissue morphology ([3]; rabbits, 1% cholesterol diet, 8 weeks): a grade higher than that of the control group
